Tests used:
KCNQ2/3 (KCNQ3 subunit) = biological target: T1, KCNQ2/3 (KCNQ3 subunit) (Homo sapiens, UniProt O43525+O43526); test: two-electrode voltage clamp in Xenopus oocytes, dose response at -70 mV; WL/WL and RA/RA mutants insensitive; type: cell-based
T1 construct: human KCNQ2/3 heteromeric channel expressed in Xenopus oocytes; with KCNQ2

KCNQ1 = biological target: T2, KCNQ1 (Homo sapiens, UniProt P51787); test: two-electrode voltage clamp in Xenopus oocytes, […] quercetin; type: cell-based
T2 construct: homomeric human KCNQ1 expressed in Xenopus oocytes
T2 sequence (P51787 1-676): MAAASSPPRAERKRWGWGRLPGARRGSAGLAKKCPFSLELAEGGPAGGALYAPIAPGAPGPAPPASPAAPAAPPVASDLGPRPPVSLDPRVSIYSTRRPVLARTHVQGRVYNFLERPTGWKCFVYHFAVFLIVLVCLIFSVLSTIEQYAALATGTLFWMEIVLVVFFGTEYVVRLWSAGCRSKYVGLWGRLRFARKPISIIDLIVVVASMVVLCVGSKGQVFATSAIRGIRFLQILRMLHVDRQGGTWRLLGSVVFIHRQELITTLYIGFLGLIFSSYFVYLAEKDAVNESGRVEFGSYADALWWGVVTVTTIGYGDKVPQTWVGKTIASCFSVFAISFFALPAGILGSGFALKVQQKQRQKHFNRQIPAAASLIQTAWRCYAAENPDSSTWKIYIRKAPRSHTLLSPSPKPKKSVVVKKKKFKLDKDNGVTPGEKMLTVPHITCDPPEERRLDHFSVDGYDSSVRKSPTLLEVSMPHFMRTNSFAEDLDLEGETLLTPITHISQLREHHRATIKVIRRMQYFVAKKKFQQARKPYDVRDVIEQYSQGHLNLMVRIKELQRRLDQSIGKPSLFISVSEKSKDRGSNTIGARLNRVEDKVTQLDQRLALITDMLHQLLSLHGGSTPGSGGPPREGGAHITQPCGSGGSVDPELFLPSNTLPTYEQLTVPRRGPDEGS

T1 sequence (O43525 whole entry): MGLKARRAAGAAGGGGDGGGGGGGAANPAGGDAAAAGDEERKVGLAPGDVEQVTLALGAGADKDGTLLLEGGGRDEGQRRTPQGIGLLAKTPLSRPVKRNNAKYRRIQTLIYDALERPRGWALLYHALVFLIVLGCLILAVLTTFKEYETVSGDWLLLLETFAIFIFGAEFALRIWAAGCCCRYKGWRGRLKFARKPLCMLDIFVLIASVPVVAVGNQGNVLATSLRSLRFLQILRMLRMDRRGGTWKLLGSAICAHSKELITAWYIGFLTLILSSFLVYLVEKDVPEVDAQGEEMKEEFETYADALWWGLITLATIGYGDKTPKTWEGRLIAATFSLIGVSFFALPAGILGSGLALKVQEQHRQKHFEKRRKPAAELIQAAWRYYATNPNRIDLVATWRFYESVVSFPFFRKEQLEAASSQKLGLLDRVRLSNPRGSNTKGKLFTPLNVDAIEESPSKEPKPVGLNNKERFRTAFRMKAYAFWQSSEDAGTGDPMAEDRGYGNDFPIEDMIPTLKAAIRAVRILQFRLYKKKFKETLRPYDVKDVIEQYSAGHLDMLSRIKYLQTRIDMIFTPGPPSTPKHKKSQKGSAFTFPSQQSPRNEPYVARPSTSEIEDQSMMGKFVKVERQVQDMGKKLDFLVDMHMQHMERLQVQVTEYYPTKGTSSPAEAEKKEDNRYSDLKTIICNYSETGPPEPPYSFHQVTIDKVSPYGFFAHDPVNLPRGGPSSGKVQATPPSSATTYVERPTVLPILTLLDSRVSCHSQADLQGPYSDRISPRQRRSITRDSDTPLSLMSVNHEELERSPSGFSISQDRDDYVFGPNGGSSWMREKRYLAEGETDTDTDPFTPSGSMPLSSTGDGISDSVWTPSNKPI
T1 sequence (O43526 whole entry): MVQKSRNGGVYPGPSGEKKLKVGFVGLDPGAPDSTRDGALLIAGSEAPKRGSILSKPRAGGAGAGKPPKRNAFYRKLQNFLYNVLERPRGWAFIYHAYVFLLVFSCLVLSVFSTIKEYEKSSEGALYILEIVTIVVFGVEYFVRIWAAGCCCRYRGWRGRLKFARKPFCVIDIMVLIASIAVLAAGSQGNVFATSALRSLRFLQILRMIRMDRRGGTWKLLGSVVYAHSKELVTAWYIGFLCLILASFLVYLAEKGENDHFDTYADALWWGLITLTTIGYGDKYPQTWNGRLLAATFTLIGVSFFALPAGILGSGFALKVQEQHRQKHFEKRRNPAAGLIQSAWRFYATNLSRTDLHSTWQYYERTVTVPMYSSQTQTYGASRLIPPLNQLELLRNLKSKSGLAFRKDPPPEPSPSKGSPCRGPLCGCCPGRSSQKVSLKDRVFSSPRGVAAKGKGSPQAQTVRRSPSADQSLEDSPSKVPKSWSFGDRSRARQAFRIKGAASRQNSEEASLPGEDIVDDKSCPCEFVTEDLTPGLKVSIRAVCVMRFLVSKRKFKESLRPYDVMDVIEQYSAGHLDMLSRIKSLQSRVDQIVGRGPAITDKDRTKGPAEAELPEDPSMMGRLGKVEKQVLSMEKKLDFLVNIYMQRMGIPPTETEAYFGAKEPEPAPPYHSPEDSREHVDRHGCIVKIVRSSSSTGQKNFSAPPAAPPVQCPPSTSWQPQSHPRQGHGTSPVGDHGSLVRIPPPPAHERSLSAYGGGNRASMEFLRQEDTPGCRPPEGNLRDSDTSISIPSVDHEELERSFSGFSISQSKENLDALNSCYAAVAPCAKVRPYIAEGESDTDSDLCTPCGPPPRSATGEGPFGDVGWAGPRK

Row | SMILES | EC50 (KCNQ2/3 (KCNQ3 subunit)) [nM] | two-electrode voltage clamp in Xenopus oocytes, 100 uM quercetin (KCNQ1)
1 | O=C(O)c1cc(O)c(O)c(O)c1 [gallic acid] | 560 ± 3 | 
2 | O=c1c(O)c(-c2ccc(O)c(O)c2)oc2cc(O)cc(O)c12 [quercetin] |  | quercetin enhances both activation and inactivation of homomeric KCNQ1 channels, inducing visible voltage-dependent decay at depolarized potentials
